Measurements as given in PMC3399817 (PLoS ONE, 2012).

Columns and labels:
Assay in all cases: KINOMEscan
Assay type in all cases: binding
AXL = biological target: T1, AXL (Homo sapiens, UniProt P30530); details: 1 uM
T1 construct: purchased Ambit KINOMEscan (DiscoverX)
Experimental: (§1) First, we used Ambit's KINOMEscan™ technology to identify those kinases that are inhibited for substrate binding by the compounds, all assayed at 1 μM. Second, we used Invitrogen's SelectScreen® Biochemical Kinase Profiling Service to determine the in vitro IC50s for the compounds against specific kinases.

BIKE = biological target: T2, BIKE (Homo sapiens, UniProt Q9NSY1); details: 1 uM
T2 construct: purchased Ambit KINOMEscan (DiscoverX)
Experimental: as §1

BRK = biological target: T3, BRK (Homo sapiens, UniProt Q13882); details: 1 uM
T3 construct: purchased Ambit KINOMEscan (DiscoverX)
Experimental: as §1

CDC2L1 = biological target: T4, CDC2L1 (Homo sapiens, UniProt P21127); details: CDC2L1, 1 uM
T4 construct: purchased Ambit KINOMEscan (DiscoverX)
Experimental: as §1

CDK7 = biological target: T5, CDK7 (Homo sapiens, UniProt P50613); details: CDK7, 1 uM
T5 construct: purchased Ambit KINOMEscan (DiscoverX)
Experimental: as §1

CHEK1 = biological target: T6, CHEK1 (Homo sapiens, UniProt O14757); details: CHEK1, 1 uM
T6 construct: purchased Ambit KINOMEscan (DiscoverX)
Experimental: as §1

DDR2 = biological target: T7, DDR2 (Homo sapiens, UniProt Q16832); details: DDR2, 1 uM
T7 construct: purchased Ambit KINOMEscan (DiscoverX)
Experimental: as §1

DYRK2 = biological target: T8, DYRK2 (Homo sapiens, UniProt Q92630); details: DYRK2, 1 uM
T8 construct: purchased Ambit KINOMEscan (DiscoverX)
Experimental: as §1

EPHA8 = biological target: T9, EPHA8 (Homo sapiens, UniProt P29322); details: EPHA8, 1 uM
T9 construct: purchased Ambit KINOMEscan (DiscoverX)
Experimental: as §1

HIPK2 = biological target: T10, HIPK2 (Homo sapiens, UniProt Q9H2X6); details: for % binding compared to no inhibitor control: HIPK2, 1 uM
T10 construct: purchased Ambit KINOMEscan (DiscoverX)
Experimental: as §1

HUNK = biological target: T11, HUNK (Homo sapiens, UniProt P57058); details: 1 uM
T11 construct: purchased Ambit KINOMEscan (DiscoverX)
Experimental: as §1

KIT(V559D) = biological target: T12, KIT(V559D) (Homo sapiens, UniProt P10721, V559D); details: 1 uM
T12 construct: purchased Ambit KINOMEscan (DiscoverX)
Experimental: as §1

KIT(V559D,T670I) = biological target: T13, KIT(V559D,T670I) (Homo sapiens, UniProt P10721, T670I/V559D); details: 1 uM
T13 construct: purchased Ambit KINOMEscan (DiscoverX)
Experimental: as §1

LATS2 = biological target: T14, LATS2 (Homo sapiens, UniProt Q9NRM7); details: LATS2, 1 uM
T14 construct: purchased Ambit KINOMEscan (DiscoverX)
Experimental: as §1

LZK = biological target: T15, LZK (Homo sapiens, UniProt O43283); details: 1 uM
T15 construct: purchased Ambit KINOMEscan (DiscoverX)
Experimental: as §1

MAP3K1 = biological target: T16, MAP3K1 (Homo sapiens, UniProt Q13233); details: MAP3K1, 1 uM
T16 construct: purchased Ambit KINOMEscan (DiscoverX)
Experimental: as §1

MEK1 = biological target: T17, MEK1 (Homo sapiens, UniProt Q02750); details: MEK1, 1 uM
T17 construct: purchased Ambit KINOMEscan (DiscoverX)
Experimental: as §1

MST3 = biological target: T18, MST3 (Homo sapiens, UniProt Q9Y6E0); details: MST3, 1 uM
T18 construct: purchased Ambit KINOMEscan (DiscoverX)
Experimental: as §1

MYLK = biological target: T19, MYLK (Homo sapiens, UniProt Q15746); details: 1 uM
T19 construct: purchased Ambit KINOMEscan (DiscoverX)
Experimental: as §1

PAK3 = biological target: T20, PAK3 (Homo sapiens, UniProt O75914); details: PAK3, 1 uM
T20 construct: purchased Ambit KINOMEscan (DiscoverX)
Experimental: as §1

PFTAIRE2 = biological target: T21, PFTAIRE2 (Homo sapiens, UniProt Q96Q40); details: PFTAIRE2, 1 uM
T21 construct: purchased Ambit KINOMEscan (DiscoverX)
Experimental: as §1

PKMYT1 = biological target: T22, PKMYT1 (Homo sapiens, UniProt Q99640); details: PKMYT1, 1 uM
T22 construct: purchased Ambit KINOMEscan (DiscoverX)
Experimental: as §1

PLK1 = biological target: T23, PLK1 (Homo sapiens, UniProt P53350); details: PLK1, 1 uM
T23 construct: purchased Ambit KINOMEscan (DiscoverX)
Experimental: as §1

PRKD1 = biological target: T24, PRKD1 (Homo sapiens, UniProt Q15139); details: PRKD1, 1 uM
T24 construct: purchased Ambit KINOMEscan (DiscoverX)
Experimental: as §1

PRKD2 = biological target: T25, PRKD2 (Homo sapiens, UniProt Q9BZL6); details: PRKD2, 1 uM
T25 construct: purchased Ambit KINOMEscan (DiscoverX)
Experimental: as §1

QSK = biological target: T26, QSK (Homo sapiens, UniProt Q9Y2K2); details: 1 uM
T26 construct: purchased Ambit KINOMEscan (DiscoverX)
Experimental: as §1

[1] = biological target: T27, RPS6KA1(Kin.Dom.1-N-terminal) (Homo sapiens, UniProt Q15418); details: 1 uM
T27 construct: RPS6KA1(Kin.Dom.1-N-terminal); purchased Ambit KINOMEscan (DiscoverX)
Experimental: as §1

[2] = biological target: T28, RPS6KA1(Kin.Dom.2-C-terminal) (Homo sapiens, UniProt Q15418); details: 1 uM
T28 construct: RPS6KA1(Kin.Dom.2-C-terminal); purchased Ambit KINOMEscan (DiscoverX)
Experimental: as §1

[3] = biological target: T29, RPS6KA6(Kin.Dom.2-C-terminal) (Homo sapiens, UniProt Q9UK32); details: 1 uM
T29 construct: RPS6KA6(Kin.Dom.2-C-terminal); purchased Ambit KINOMEscan (DiscoverX)
Experimental: as §1

SRPK3 = biological target: T30, SRPK3 (Homo sapiens, UniProt Q9UPE1); details: SRPK3, 1 uM
T30 construct: purchased Ambit KINOMEscan (DiscoverX)
Experimental: as §1

STK35 = biological target: T31, STK35 (Homo sapiens, UniProt Q8TDR2); details: STK35, 1 uM
T31 construct: purchased Ambit KINOMEscan (DiscoverX)
Experimental: as §1

STK39 = biological target: T32, STK39 (Homo sapiens, UniProt Q9UEW8); details: STK39, 1 uM
T32 construct: purchased Ambit KINOMEscan (DiscoverX)
Experimental: as §1

TESK1 = biological target: T33, TESK1 (Homo sapiens, UniProt Q15569); details: TESK1, 1 uM
T33 construct: purchased Ambit KINOMEscan (DiscoverX)
Experimental: as §1

TNIK = biological target: T34, TNIK (Homo sapiens, UniProt Q9UKE5); details: 1 uM
T34 construct: purchased Ambit KINOMEscan (DiscoverX)
Experimental: as §1

TTK = biological target: T35, TTK (Homo sapiens, UniProt P33981); details: 1 uM
T35 construct: purchased Ambit KINOMEscan (DiscoverX)
Experimental: as §1

WEE2 = biological target: T36, WEE2 (Homo sapiens, UniProt P0C1S8); details: WEE2, 1 uM
T36 construct: purchased Ambit KINOMEscan (DiscoverX)
Experimental: as §1

ZAP70 = biological target: T37, ZAP70 (Homo sapiens, UniProt P43403); details: ZAP70, 1 uM
T37 construct: purchased Ambit KINOMEscan (DiscoverX)
Experimental: as §1

p38-beta = biological target: T38, p38-beta (Homo sapiens, UniProt Q15759); details: 1 uM
T38 construct: purchased Ambit KINOMEscan (DiscoverX)
Experimental: as §1

T10 sequence (Q9H2X6 whole entry): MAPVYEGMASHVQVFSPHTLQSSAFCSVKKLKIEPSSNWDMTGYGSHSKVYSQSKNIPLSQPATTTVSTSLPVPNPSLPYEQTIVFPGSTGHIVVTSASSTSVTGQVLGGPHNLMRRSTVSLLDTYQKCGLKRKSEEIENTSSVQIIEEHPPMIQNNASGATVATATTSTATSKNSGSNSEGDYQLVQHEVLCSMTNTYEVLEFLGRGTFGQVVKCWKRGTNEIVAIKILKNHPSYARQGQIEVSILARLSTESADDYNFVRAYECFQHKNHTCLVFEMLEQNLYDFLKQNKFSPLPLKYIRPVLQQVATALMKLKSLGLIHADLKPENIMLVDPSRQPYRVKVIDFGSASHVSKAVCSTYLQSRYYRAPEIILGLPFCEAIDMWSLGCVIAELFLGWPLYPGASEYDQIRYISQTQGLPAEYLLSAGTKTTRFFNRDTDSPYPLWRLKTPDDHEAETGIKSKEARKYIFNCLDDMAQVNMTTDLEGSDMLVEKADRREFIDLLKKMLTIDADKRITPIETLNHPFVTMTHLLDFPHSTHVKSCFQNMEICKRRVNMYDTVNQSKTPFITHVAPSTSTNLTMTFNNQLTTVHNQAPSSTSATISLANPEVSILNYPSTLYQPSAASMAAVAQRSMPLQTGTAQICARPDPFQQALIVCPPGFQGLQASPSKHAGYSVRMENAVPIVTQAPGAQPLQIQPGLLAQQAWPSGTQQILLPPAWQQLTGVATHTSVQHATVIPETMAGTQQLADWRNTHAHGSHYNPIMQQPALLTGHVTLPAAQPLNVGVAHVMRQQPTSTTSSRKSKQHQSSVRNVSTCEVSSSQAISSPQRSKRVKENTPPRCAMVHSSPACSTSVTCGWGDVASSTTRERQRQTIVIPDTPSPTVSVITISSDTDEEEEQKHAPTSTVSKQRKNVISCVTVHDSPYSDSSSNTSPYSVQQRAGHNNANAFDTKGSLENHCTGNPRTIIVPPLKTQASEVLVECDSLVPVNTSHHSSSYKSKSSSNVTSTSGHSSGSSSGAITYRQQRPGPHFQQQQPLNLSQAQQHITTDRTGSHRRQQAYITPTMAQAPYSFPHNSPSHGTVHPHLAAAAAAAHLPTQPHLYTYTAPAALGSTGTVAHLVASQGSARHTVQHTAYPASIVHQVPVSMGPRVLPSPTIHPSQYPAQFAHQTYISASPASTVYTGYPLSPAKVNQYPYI
T16 sequence (Q13233 whole entry): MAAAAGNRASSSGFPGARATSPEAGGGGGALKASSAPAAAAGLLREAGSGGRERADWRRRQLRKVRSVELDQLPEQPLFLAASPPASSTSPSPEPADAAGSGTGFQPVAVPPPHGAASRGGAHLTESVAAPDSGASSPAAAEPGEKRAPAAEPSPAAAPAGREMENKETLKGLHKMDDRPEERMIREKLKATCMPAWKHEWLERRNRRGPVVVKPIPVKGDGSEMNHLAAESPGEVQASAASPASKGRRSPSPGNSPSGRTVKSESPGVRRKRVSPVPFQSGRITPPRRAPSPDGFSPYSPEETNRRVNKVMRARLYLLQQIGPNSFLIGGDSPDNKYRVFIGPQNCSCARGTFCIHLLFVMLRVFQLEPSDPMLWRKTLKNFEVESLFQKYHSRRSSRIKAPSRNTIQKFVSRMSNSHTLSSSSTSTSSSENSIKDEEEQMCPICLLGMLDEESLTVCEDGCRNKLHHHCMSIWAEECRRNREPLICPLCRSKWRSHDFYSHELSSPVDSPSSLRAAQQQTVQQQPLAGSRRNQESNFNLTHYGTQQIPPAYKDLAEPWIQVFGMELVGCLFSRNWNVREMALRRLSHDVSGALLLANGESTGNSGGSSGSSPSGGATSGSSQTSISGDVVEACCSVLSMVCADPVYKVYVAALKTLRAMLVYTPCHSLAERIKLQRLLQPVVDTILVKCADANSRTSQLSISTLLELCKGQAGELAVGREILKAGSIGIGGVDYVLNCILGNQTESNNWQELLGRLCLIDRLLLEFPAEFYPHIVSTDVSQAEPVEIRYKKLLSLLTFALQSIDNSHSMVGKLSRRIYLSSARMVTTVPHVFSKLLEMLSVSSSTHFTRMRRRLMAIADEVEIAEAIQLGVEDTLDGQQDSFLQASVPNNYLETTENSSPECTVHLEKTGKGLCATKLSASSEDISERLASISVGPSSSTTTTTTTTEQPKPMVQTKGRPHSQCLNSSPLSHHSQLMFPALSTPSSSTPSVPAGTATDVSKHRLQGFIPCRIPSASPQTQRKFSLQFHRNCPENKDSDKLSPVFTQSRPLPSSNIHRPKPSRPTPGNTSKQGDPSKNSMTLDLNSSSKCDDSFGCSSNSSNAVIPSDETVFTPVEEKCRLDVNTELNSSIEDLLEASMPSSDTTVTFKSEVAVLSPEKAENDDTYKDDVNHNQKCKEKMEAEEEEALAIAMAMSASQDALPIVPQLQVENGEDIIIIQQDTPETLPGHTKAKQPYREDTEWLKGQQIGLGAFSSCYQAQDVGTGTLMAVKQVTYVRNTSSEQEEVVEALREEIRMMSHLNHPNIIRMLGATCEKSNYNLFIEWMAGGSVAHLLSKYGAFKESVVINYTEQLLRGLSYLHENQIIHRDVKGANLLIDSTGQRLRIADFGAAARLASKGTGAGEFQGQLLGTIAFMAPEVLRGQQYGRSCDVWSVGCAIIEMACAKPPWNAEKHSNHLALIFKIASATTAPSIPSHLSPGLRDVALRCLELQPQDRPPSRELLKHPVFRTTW
T4 sequence (P21127 whole entry): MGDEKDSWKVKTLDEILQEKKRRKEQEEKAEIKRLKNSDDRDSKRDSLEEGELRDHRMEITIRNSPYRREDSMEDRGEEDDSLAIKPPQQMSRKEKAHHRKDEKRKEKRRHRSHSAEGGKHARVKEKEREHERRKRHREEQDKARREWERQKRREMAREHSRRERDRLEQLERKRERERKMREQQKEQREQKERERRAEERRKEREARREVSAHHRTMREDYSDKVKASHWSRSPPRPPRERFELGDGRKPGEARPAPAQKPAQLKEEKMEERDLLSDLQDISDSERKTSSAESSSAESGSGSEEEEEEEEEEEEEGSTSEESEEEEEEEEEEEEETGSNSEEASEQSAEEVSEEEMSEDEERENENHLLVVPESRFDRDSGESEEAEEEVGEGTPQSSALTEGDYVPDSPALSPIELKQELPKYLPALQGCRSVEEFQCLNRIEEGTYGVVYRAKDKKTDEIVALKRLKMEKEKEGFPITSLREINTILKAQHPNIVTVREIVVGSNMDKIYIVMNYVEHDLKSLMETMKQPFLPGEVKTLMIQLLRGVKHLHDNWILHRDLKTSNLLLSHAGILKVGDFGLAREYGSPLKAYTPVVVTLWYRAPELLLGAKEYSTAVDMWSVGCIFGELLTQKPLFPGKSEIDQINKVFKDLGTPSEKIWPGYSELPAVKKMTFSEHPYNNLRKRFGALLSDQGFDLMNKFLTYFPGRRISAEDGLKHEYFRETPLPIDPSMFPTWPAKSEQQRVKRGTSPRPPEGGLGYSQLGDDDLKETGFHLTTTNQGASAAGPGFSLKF
T9 sequence (P29322 28-1005): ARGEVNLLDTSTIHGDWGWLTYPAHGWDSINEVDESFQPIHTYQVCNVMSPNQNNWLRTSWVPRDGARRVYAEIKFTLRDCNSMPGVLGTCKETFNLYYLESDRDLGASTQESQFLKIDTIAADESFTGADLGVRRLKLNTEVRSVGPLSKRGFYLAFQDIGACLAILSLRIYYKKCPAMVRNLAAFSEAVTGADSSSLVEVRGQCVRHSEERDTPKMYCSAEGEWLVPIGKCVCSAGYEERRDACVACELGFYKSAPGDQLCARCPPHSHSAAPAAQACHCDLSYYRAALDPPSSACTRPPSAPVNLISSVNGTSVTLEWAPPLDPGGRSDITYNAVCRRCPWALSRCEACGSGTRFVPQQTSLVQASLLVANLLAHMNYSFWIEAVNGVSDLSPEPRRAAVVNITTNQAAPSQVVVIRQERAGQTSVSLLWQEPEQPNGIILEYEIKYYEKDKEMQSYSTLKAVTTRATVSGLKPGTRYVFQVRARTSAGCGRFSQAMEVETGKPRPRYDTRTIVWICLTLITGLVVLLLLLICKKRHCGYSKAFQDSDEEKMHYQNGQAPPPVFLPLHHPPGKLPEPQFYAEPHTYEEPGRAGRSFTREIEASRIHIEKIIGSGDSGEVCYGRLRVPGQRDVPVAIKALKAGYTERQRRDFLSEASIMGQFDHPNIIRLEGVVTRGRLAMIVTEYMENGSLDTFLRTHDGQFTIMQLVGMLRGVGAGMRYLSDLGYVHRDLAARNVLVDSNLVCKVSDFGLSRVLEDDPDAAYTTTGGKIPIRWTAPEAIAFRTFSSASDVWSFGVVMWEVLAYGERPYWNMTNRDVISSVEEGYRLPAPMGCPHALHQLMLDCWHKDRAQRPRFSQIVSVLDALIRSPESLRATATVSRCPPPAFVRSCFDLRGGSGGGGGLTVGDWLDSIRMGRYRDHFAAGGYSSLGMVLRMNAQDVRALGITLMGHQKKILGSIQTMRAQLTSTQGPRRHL
T37 sequence (P43403 whole entry): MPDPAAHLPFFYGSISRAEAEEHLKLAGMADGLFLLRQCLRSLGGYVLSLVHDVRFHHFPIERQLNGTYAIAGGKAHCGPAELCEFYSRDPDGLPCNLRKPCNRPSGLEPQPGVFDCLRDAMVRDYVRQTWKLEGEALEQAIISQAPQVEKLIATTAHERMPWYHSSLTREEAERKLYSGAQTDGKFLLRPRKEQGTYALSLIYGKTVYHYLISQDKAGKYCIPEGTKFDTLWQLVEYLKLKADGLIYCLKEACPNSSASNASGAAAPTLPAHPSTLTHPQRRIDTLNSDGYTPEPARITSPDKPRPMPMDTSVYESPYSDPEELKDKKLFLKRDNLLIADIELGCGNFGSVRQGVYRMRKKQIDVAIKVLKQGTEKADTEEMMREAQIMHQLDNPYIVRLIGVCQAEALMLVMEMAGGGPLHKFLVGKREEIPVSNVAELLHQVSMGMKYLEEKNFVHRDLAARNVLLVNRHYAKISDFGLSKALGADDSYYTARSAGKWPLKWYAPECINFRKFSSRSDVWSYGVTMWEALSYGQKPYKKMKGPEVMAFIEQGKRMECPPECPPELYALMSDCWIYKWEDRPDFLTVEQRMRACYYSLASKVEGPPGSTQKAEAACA

Compound	% binding compared to no inhibitor control (AXL) [%]	% binding compared to no inhibitor control (BIKE) [%]	% binding compared to no inhibitor control (BRK) [%]	% binding compared to no inhibitor control (CDC2L1) [%]	% binding compared to no inhibitor control (CDK7) [%]	% binding compared to no inhibitor control (CHEK1) [%]	% binding compared to no inhibitor control (DDR2) [%]	% binding compared to no inhibitor control (DYRK2) [%]	% binding compared to no inhibitor control (EPHA8) [%]	% binding compared to no inhibitor control (HIPK2) [%]	% binding compared to no inhibitor control (HUNK) [%]	% binding compared to no inhibitor control (KIT(V559D)) [%]	% binding compared to no inhibitor control (KIT(V559D,T670I)) [%]	% binding compared to no inhibitor control (LATS2) [%]	% binding compared to no inhibitor control (LZK) [%]	% binding compared to no inhibitor control (MAP3K1) [%]	% binding compared to no inhibitor control (MEK1) [%]	% binding compared to no inhibitor control (MST3) [%]	% binding compared to no inhibitor control (MYLK) [%]	% binding compared to no inhibitor control (PAK3) [%]	also measured
COc1ccc(-c2cc3nccn3c(Nc3ncccc3C(N)=O)n2)cc1OC.Cl.Cl [BAY61-3606, 2-[7-(3,4-dimethoxyphenyl)-imidazo [1,2-c]pyrimidin-5-ylamino] nicotinamide dihydrochloride, reference compound]	92	22	87	95	33	100	74	24	83	9	67	3	9.3	45	64	100	100	56	55	92	% inhibition ATP binding (HIPK2; HIPK2, KINOMEscan, 1 μM): 91%; % binding compared to no inhibitor control (PFTAIRE2): 85%; % binding compared to no inhibitor control (PKMYT1): 88%; % binding compared to no inhibitor control (PLK1): 98%; % binding compared to no inhibitor control (PRKD1): 39%; % binding compared to no inhibitor control (PRKD2): 53%; % binding compared to no inhibitor control (QSK): 100%; % binding compared to no inhibitor control [1]: 96%; % binding compared to no inhibitor control [2]: 50%; % binding compared to no inhibitor control [3]: 79%; % binding compared to no inhibitor control (SRPK3): 74%; % binding compared to no inhibitor control (STK35): 88%; % binding compared to no inhibitor control (STK39): 46%; % binding compared to no inhibitor control (TESK1): 90%; % binding compared to no inhibitor control (TNIK): 69%; % binding compared to no inhibitor control (TTK): 51%; % binding compared to no inhibitor control (WEE2): 100%; % binding compared to no inhibitor control (ZAP70): 9%; % binding compared to no inhibitor control (p38-beta): 100%
COc1ccccc1Nc1nc(-c2ccc(OC)c(OC)c2)cc2nccn12 [BAY derivative 6]	89	53	59	100	100	90	100	56	100	100	75	54	87	88	100	100	100	100	100	100	% binding compared to no inhibitor control (PFTAIRE2): 100%; % binding compared to no inhibitor control (PKMYT1): 95%; % binding compared to no inhibitor control (PLK1): 100%; % binding compared to no inhibitor control (PRKD1): 100%; % binding compared to no inhibitor control (PRKD2): 100%; % binding compared to no inhibitor control (QSK): 87%; % binding compared to no inhibitor control [1]: 82%; % binding compared to no inhibitor control [2]: 100%; % binding compared to no inhibitor control [3]: 93%; % binding compared to no inhibitor control (SRPK3): 100%; % binding compared to no inhibitor control (STK35): 91%; % binding compared to no inhibitor control (STK39): 97%; % binding compared to no inhibitor control (TESK1): 100%; % binding compared to no inhibitor control (TNIK): 98%; % binding compared to no inhibitor control (TTK): 74%; % binding compared to no inhibitor control (WEE2): 100%; % binding compared to no inhibitor control (ZAP70): 100%; % binding compared to no inhibitor control (p38-beta): 80%
